Results: US7618961B2, “Inhibitors of 11-beta-hydroxy steroid dehydrogenase type 1” (Biovitrum AB, priority 2000, dated 2009)
Structures can show the parent of a compound that is named as a salt.

| melting point | Structure (SMILES) |
| --- | --- |
| 173 °C | CCOC(=O)Cc1csc(NS(=O)(=O)c2ccc(C)cc2)n1 [Example 5A, Ethyl 2-(2-(((4-methylphenyl)sulfonyl)amino)-1,3-thiazol-4-yl)acetate] |
| 154 °C | CCOC(=O)Cc1csc(NS(=O)(=O)c2cccc(Cl)c2C)n1 [Example 8A, Ethyl 2-(2-{[(3-chloro-2-methylphenyl)sulfonyl]amino}-1,3-thiazol-4-yl)acetate] |
| 182 °C | CCOC(=O)Cc1csc(NS(=O)(=O)c2ccc(-c3ccccc3)cc2)n1 [Example 10A, Ethyl 2-{2-[([1,1′-biphenyl]-4-ylsulfonyl)amino]-1,3-thiazol-4-yl}acetate] |
| 155 °C | CCOC(=O)Cc1csc(NS(=O)(=O)c2cccc(Br)c2)n1 [Example 12A, Ethyl 2-(2-{[(3-bromophenyl)sulfonyl]amino}-1,3-thiazol-4-yl)acetate] |
| 171 °C | CCOC(=O)Cc1csc(NS(=O)(=O)c2ccccc2C(F)(F)F)n1 [Example 25A, Ethyl [2-({[2-(trifluoromethyl)phenyl]sulfonyl}amino)-1,3-thiazol-4-yl]acetate] |
| 145 °C | CCOC(=O)Cc1csc(NS(=O)(=O)c2cccc(C(F)(F)F)c2)n1 [Example 26A, Ethyl [2-({[3-(trifluoromethyl)phenyl]sulfonyl}amino)-1,3-thiazol-4-yl]acetate] |
| 174 °C | CCOC(=O)Cc1csc(NS(=O)(=O)c2ccc(C(F)(F)F)cc2)n1 [Example 27A, Ethyl [2-({[4-(trifluoromethyl)phenyl]sulfonyl}amino)-1,3-thiazol-4-yl]acetate] |
| 183 °C | CCOC(=O)Cc1csc(NS(=O)(=O)c2ccc(Br)cc2)n1 [Example 28A, Ethyl 2-(2-{[(4-bromophenyl)sulfonyl]amino}-1,3-thiazol-4-yl)acetate] |
| 171 °C | CCOC(=O)Cc1csc(NS(=O)(=O)c2cc(Cl)ccc2Cl)n1 [Example 77A, Ethyl (2-{[(2,5-dichlorophenyl)sulfonyl]amino}-1,3-thiazol-4-yl)acetate] |
| 187 °C | COC(=O)Cc1csc(NS(=O)(=O)c2cccc(Cl)c2C)n1 [Example 90A, Methyl (2-{[(3-chloro-2-methylphenyl)sulfonyl]amino}-1,3-thiazol-4-yl)acetate] |

Second part, the compound before the results:

| Structure (SMILES) | melting point |
| --- | --- |
| O=C(O)Cc1csc(NS(=O)(=O)c2cc(Cl)sc2Cl)n1 (as salt: salt) [Example 85A, 2-(2-{[(2,5-Dichloro-3-thienyl)sulfonyl]amino}-1,3-thiazol-4-yl)acetic acid] | 174 °C |
| Cc1c(Cl)cccc1S(=O)(=O)Nc1nc(CC(=O)O)cs1 (as salt: salt) [Example 87A, 2-(2-{[(3-Chloro-2-methylphenyl)sulfonyl]amino}-1,3-thiazol-4-yl)acetic acid] | 198 °C |
| Cc1ccc(S(=O)(=O)Nc2nc(CC(=O)O)cs2)cc1 [Example 84A, 2-(2-{[(4-Methylphenyl)sulfonyl]amino}-1,3-thiazol-4-yl)acetic acid] | 187 °C |
| O=C(O)Cc1csc(NS(=O)(=O)c2ccccc2Cl)n1 [Example 86A, (2-{[(2-Chlorophenyl)sulfonyl]amino}-1,3-thiazol-4-yl)acetic acid] | 176 °C |
| Cc1c(Cl)cccc1S(=O)(=O)Nc1nc(CC(=O)Oc2ccccc2)cs1 [Example 89A, Phenyl 2-(2-{[(3-chloro-2-methylphenyl)sulfonyl]amino}-1,3-thiazol-4-yl)acetate] | 189 °C |
| CNC(=O)Cc1csc(NS(=O)(=O)c2cc(Cl)sc2Cl)n1 [Example 99A, 2-(2-{[(2,5-Dichloro-3-thienyl)sulfonyl]amino}-1,3-thiazol-4-yl)-N-methylacetamide] | 183 °C |
| CCNC(=O)Cc1csc(NS(=O)(=O)c2ccc(F)cc2F)n1 [Example 102A, 2-(2-{[(2,4-Difluorophenyl)sulfonyl]amino}-1,3-thiazol-4-yl)-N-ethylacetamide] | 150 °C |
